The test system of the experiment is TNB-induced chronic colitis. Nature of the experiment: TNB-induced chronic colitis in the rat (damage score of the colon). The format is in vivo, Wistar rats. To be noted: damage score of chronic inflammation induced by TNB, colons scored 96 h after TNB. How it is done: 20 mg of TNB (2,4,6-trinitrobenzenesulfonic acid) in 50 % ethanol was administered into the lumen of the colon via a rubber catheter inserted rectally to Wistar rats. The test compounds were given rectally 1 h prior and 24, 48, 72 and 95 h after TNB. The rats were sacrificed 96 h after TNB and their colons were scored according to occurence of ulcers and inflammation. The number of animals in each group was at least 8. 5-ASA (5-aminosalicylic acid), a clinically used drug for the treatment of IBD was used as a reference compound.

The mark [1] stands for this setting: dose 30 mg/kg rectally 1 h prior and 24, 48, 72 and 95 h after TNB.

We go through five compounds from patent EP0440324B1, “Substituted beta-diketones and their use in the treatment of inflammatory bowel disease” (ORION-YHTYMÄ OY, priority 1990, dated 1991).

In the case of `Nc1ccc(O)c(C(=O)O)c1` [5-ASA, 5-aminosalicylic acid, reference compound], the inhibition in vivo at 100 mg/kg (Rattus norvegicus, dose 100 mg/kg rectally 1 h prior and 24, 48, 72 and 95 h after TNB, read-out: % inhibition against control) turned out to be 24%.
Consider “3-[3-(4-Methoxyphenyl)propenylene]-2,4-pentanedione [Example 11]”, for which, under setting [1], the “% inhibition against control” value was 32%.
For the compound “3-[(5-Nitrothienyl)methylene]-2,4-pentanedione [Example 13]”, the “% inhibition against control” value under setting [1] amounted to 58%.
For “3-[(3,5-Dinitro-4-hydroxyphenyl)methylene]-2,4-pentanedione. [Example 9]”, under setting [1], the “% inhibition against control” value was 40%.
For `CC(=O)C(=Cc1ccc(C(=O)NCCc2ccccc2)cc1)C(C)=O` [Test compound 9, 3-[(4-(N-phenethyl)carboxamido-phenyl)methylene]-2,4-pentanedione], the inhibition in vivo at 10 mg/kg (Rattus norvegicus, dose 10 mg/kg rectally 1 h prior and 24, 48, 72 and 95 h after TNB, read-out: % inhibition against control) was 60%. Also, where the note is “Rattus norvegicus, dose 30 mg/kg rectally 1 h prior and 24, 48, 72 and 95 h after TNB, read-out: % inhibition against control”, the inhibition in vivo at 30 mg/kg is 48%.
